Laboratory results published in US20230365554A1, “SUBSTITUTED PYRROLO-PYRIDINONE DERIVATIVES AND THERAPEUTIC USES THEREOF” (The Broad Institute, Inc., priority 2020, published 2023).

Legend:
human CSNK1D = human CSNK1D (Homo sapiens (Human), UniProt P48730); test: CSNK1D assay (ADP-Glo, 1 μM ATP); format: biochemical; conditions: median, Table 2, read-out: CSNK1D IC50 [mol/l] (median)
Protocol: CSNK1D-inhibitory activity of compounds of the present invention in presence of 1 μM adenosine-tri-phosphate (ATP) was quantified employing the CSNK1D assay as described in the following paragraphs. In essence, the enzyme activity is measured by quantification of the adenosine-di-phosphate (ADP), which is generated as a co-product of the enzyme reaction, via the “ADP-Glo™ Kinase Assay” kit from the company Promega. This detection system works as follows: In a first step the ATP not consumed in the kinase reaction is quantitatively converted to cAMP employing an adenylate cyclase (“ADP-Glo-reagent”), then the adenylate cyclase is stopped and the ADP generated in the kinase reaction converted to ATP which generates in a luciferase-based reaction a glow-luminescence signal (“Kinase Detection Reagent”).
Recombinant fusion protein of N-terminal Glutathion-S-Transferase (GST) and full-length human CSNK1D, expressed by baculovirus infected insect cells and purified via Glutathion affinity chromatography, was purchased from Life Technologies (product no. PV3665) and used as enzyme. As substrate for the kinase reaction the biotinylated peptide Btn-Ahx-SGSEGDSESGEEEG (C-terminus in amide form) was used which can be purchased e.g. from the company Biosyntan (Berlin-Buch, Germany).
For the assay 50 nl of a 100 fold concentrated solution of the test compound in DMSO was pipetted into a white 1536-well microtiter plate (Greiner Bio-One, Frickenhausen, Germany), 2 μL of a solution of CSNK1D in aqueous assay buffer [50 mM HEPES pH 7.5, 10% (v/v) glycerol, 10 mM MgCl2, 50 mM NaCl, 1 mM dithiothreitol, 0.01% (w/v) bovine serum albumin, 0.01% (v/v) Triton X-100] were added and the mixture was incubated for 15 min at 22° C. to allow pre-binding of the test compounds to the enzyme before the start of the kinase reaction. Then the kinase reaction was started by the addition of 3 μL of a solution of ATP (1.67 μM=>final conc. in the 5 μL assay volume is 1 μM) and peptide substrate (50 μM=>final conc. in the 5 μL assay volume is 30 μM) in assay buffer and the resulting mixture was incubated for a reaction time of 30 min at 22° C. The concentration of CSNK1D was adjusted depending of the activity of the enzyme lot and was chosen appropriate to have the assay in the linear range, a typical concentration is about 0.5 ng/μL. The reaction was stopped by the addition of 2.5 μL of “ADP-Glo-reagent” (1:1.5 fold diluted with water) and the resulting mixture was incubated at 22° C. for 1 h to convert the ATP not consumed in the kinase reaction completely […]. Subsequently 2.5 μL of the “kinase detection reagent” (1.2 fold more concentrated than recommended by the producer) were added, the resulting mixture was incubated at 22° C. for 1 h and then the luminescence measured with a suitable measurement instrument (e.g. Viewlux™ from Perkin-Elmer). The amount of emitted light was taken as a measure for the amount of ADP generated and thereby for the activity of the CSNK1D.
The data were normalised (enzyme reaction without inhibitor=0% inhibition, all other assay components but no enzyme=100% inhibition).

[1] = molecular target: wild-type Epidermal Growth Factor Receptor (EGFR) (Homo sapiens (Human), UniProt P00533); test: WT-EGFR kinase assay (TR-FRET, 2 mM ATP); format: biochemical; conditions: median or individual measurements, Table 3, read-out: EGFR Wildtyp-2mM ATP IC50 [mol/l] (median)
wild-type Epidermal Growth Factor Receptor (EGFR), sequence (P00533 669-1210): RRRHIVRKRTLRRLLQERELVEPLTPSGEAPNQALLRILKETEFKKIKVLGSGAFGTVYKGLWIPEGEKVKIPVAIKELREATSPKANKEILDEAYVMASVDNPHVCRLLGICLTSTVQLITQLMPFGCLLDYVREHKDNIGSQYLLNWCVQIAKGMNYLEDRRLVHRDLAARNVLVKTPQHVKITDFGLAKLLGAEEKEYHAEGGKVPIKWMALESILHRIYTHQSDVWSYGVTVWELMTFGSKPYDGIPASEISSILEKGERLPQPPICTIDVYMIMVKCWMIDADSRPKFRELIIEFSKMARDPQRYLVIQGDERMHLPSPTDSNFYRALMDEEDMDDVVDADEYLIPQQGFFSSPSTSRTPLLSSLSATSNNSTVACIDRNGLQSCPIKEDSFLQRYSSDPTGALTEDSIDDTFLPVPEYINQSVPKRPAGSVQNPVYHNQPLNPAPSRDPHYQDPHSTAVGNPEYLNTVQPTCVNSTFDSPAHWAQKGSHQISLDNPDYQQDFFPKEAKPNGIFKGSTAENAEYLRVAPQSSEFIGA
Source text: Inhibitory activity of compounds of the present invention against wild-type Epidermal Growth Factor Receptor (EGFR) was quantified employing the TR-FRET based EGFR assay as described in the following paragraphs.
Recombinant fusion protein of N-terminal Glutathion-S-Transferase (GST) and a fragment of human EGFR (amino acids R669 to A1210), expressed in Sf9 insect cells and purified via affinity chromatography using Glutathion Sepharose as described above, was used as kinase. As substrate for the kinase reaction the biotinylated peptide biotin-Ahx-AEEEEYFELVAKKK (C-terminus in amide form) was used which can be purchased e.g. form the company Biosynthan GmbH (Berlin-Buch, Germany).
For the assay 50 nl of a 100 fold concentrated solution of the test compound in DMSO was pipetted into either a black low volume 384 well microtiter plate or a black 1536 well microtiter plate (both Greiner Bio-One, Frickenhausen, Germany), 2 μL of a solution of EGFR in aqueous assay buffer [50 mM Hepes pH 7.0, 10 mM MgCl2, 1 mM dithiothreitol, 0.5 mM EGTA, 0.3 mM activated sodium ortho-vanadate, 0.005% (w/v) bovine serum albumin, 0.005% (v/v) Tween-20] were added and the mixture was incubated for 15 min at 22° C. to allow pre-binding of the test compounds to the enzyme before the start of the kinase reaction. Then the kinase reaction was started by the addition of 3 μL of a solution of adenosine-tri-phosphate (ATP, 3.33 mM=>final conc. in the 5 μL assay volume is 2 mM) and substrate (1.67 μM=>final conc. in the 5 μL assay volume is 1 μM) in assay buffer and the resulting mixture was incubated for a reaction time of 30 min at 22° C. The concentration of EGFR was adjusted depending of the activity of the enzyme lot and was chosen appropriate to have the assay in the linear range, typical concentration was 7.6 pg/μL. The reaction was stopped by the addition of 3 μL of a solution of HTRF detection reagents (83.3 nM streptavidine-XL665 [Cisbio Bioassays, Codolet, France] and 1.67 nM PT66-Tb-Cryptate, a terbium-cryptate labelled anti-phospho-tyrosine antibody from Cisbio Bioassays [instead of the PT66-Tb-cryptate PT66-Eu-Chelate from Perkin Elmer can also be used]) in an aqueous EDTA-solution (133.3 mM EDTA, 0.2% (w/v) bovine serum albumin in 50 mM HEPES pH 7.5).
The resulting mixture was incubated 1 h at 22° C. to allow the binding of the biotinylated phosphorylated peptide to the streptavidine-XL665 and the PT66-Tb-Cryptate. Subsequently the amount of phosphorylated substrate was evaluated by measurement of the resonance energy transfer from the PT66-Tb-Cryptate to the streptavidine-XL665. Therefore, the fluorescence emissions at 620 nm and 665 nm after excitation at 337 nm were measured in a HTRF reader, e.g. a Pherastar (BMG Labtechnologies, Offenburg, Germany) or a Viewlux (Perkin-Elmer). The ratio of the emissions at 665 nm and at […] was taken as the measure for the amount of phosphorylated substrate. The data were normalised (enzyme reaction without inhibitor=0% inhibition, all other assay components but no enzyme=100% inhibition).

human CSNK1D, sequence (P48730 whole entry): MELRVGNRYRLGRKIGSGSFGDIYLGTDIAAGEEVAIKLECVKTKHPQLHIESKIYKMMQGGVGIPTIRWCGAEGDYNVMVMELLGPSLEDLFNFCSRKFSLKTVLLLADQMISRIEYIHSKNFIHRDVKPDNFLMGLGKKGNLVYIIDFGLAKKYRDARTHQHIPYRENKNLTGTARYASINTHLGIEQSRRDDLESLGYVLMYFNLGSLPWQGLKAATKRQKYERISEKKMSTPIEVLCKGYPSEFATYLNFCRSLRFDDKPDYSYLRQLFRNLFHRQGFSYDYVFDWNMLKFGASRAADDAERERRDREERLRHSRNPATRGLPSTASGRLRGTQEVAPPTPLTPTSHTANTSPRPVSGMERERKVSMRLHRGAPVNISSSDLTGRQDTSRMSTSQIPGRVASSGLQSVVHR

| SMILES | IC50 (human CSNK1D) | IC50 [1] |
| --- | --- | --- |
| CCC1CNC(=O)c2c1[nH]c(-c1ccnc(NC(=O)Cc3ccc(F)cc3)c1)c2Nc1ccccc1 (racemic) [Example 1, N-{4-[3-anilino-7-ethyl-4-oxo-4,5,6,7-tetrahydro-1H-pyrrolo[3,2-c]pyridin-2-yl]pyridin-2-yl}-2-(4-fluorophenyl)acetamide] | 5.5 nM | 57 nM |
| CCc1c[nH]c(=O)c2c(Nc3ccccc3)c(-c3ccnc(NC(=O)C(CC(F)F)c4ccc(F)cc4)c3)[nH]c12 (racemic) [Example 5, N-[4-(3-anilino-7-ethyl-4-oxo-4,5-dihydro-1H-pyrrolo[3,2-c]pyridin-2-yl)pyridin-2-yl]-4,4-difluoro-2-(4-fluorophenyl)butanamide] | 6.4 nM | 7300 nM |
| CC1CN(C)C(=O)c2c1[nH]c(-c1ccnc(NC(=O)Cc3ccc(F)cc3)c1)c2Nc1ccccc1 (racemic) [Example 6, N-{4-[3-anilino-5,7-dimethyl-4-oxo-4,5,6,7-tetrahydro-1H-pyrrolo[3,2-c]pyridin-2-yl]pyridin-2-yl}-2-(4-fluorophenyl)acetamide] | 6.5 nM | 1400 nM |
| CC1CN(C)C(=O)c2c1[nH]c(-c1ccnc(NC(=O)C(C)c3ccc(F)cc3)c1)c2Nc1ccccc1 (racemic) [Example 9, N-{4-[(7RS)-3-anilino-5,7-dimethyl-4-oxo-4,5,6,7-tetrahydro-1H-pyrrolo[3,2-c]pyridin-2-yl]pyridin-2-yl}-2-(4-fluorophenyl)propanamide] | 12 nM | 13000 nM |
| Cc1cn(C)c(=O)c2c(Nc3ccccc3)c(-c3ccnc(NC(=O)C(CC(F)F)c4ccc(F)cc4)c3)[nH]c12 (racemic) [Example 11, N-[4-(3-anilino-5,7-dimethyl-4-oxo-4,5-dihydro-1H-pyrrolo[3,2-c]pyridin-2-yl)pyridin-2-yl]-4,4-difluoro-2-(4-fluorophenyl)butanamide] | 25 nM | > 20000 nM |
| CN1CC(CC(F)(F)F)c2[nH]c(-c3ccnc(NC(=O)Cc4ccc(F)cc4)c3)c(Nc3ccccc3)c2C1=O (racemic) [Example 14, N-{4-[3-anilino-5-methyl-4-oxo-7-(2,2,2-trifluoroethyl)-4,5,6,7-tetrahydro-1H-pyrrolo[3,2-c]pyridin-2-yl]pyridin-2-yl}-2-(4-fluorophenyl)acetamide] | 5.1 nM | 1100 nM |
| CN1CC(CC2CC2)c2[nH]c(-c3ccnc(NC(=O)Cc4ccc(F)cc4)c3)c(Nc3ccccc3)c2C1=O (racemic) [Example 18, N-{4-[3-anilino-7-(cyclopropylmethyl)-5-methyl-4-oxo-4,5,6,7-tetrahydro-1H-pyrrolo[3,2-c]pyridin-2-yl]pyridin-2-yl}-2-(4-fluorophenyl)acetamide] | 12 nM | 4300 nM |
| O=C1N[C@@H]2CCC[C@@H]2c2[nH]c(-c3ccnc(NC(=O)C(CC(F)F)c4ccc(F)cc4)c3)c(Nc3ccccc3)c21 (mixture of isomers) [Example 21, (2RS)—N-{4-[cis-3-anilino-4-oxo-1,4,5,5a,6,7,8,8a-octahydrocyclopenta[b]pyrrolo[2,3-d]pyridin-2-yl]pyridin-2-yl}-4,4-difluoro-2-(4-fluorophenyl)butanamide] | 18 nM | 4500 nM |
| Cn1ccc2[nH]c(-c3ccnc(NC(=O)C(CC(F)F)c4ccc(F)cc4)c3)c(Nc3ccccc3)c2c1=O (racemic) [Example 28, N-[4-(3-anilino-5-methyl-4-oxo-4,5-dihydro-1H-pyrrolo[3,2-c]pyridin-2-yl)pyridin-2-yl]-4,4-difluoro-2-(4-fluorophenyl)butanamide] | 8.1 nM | 12000 nM |
| Cc1cc2[nH]c(-c3ccnc(NC(=O)C(CC(F)F)c4ccc(F)cc4)c3)c(Nc3ccccc3F)c2c(=O)n1C (racemic) [Example 31, 4,4-difluoro-N-{4-[3-(2-fluoroanilino)-5,6-dimethyl-4-oxo-4,5-dihydro-1H-pyrrolo[3,2-c]pyridin-2-yl]pyridin-2-yl}-2-(4-fluorophenyl)butanamide] | 32 nM | > 20000 nM |
| Cc1cn(C)c(=O)c2c(Nc3ccccc3)c(-c3ccnc(NC(=O)C(C)c4ccc(F)cc4)c3)[nH]c12 (racemic) [Example 39, N-[4-(3-anilino-5,7-dimethyl-4-oxo-4,5-dihydro-1H-pyrrolo[3,2-c]pyridin-2-yl)pyridin-2-yl]-2-(4-fluorophenyl)propanamide] | 56 nM | 18000 nM |
| CN1CC(CC(F)F)c2[nH]c(-c3ccnc(NC(=O)Cc4ccc(F)cc4)c3)c(Nc3ccccc3)c2C1=O (racemic) [Example 42, N-{4-[3-anilino-7-(2,2-difluoroethyl)-5-methyl-4-oxo-4,5,6,7-tetrahydro-1H-pyrrolo[3,2-c]pyridin-2-yl]pyridin-2-yl}-2-(4-fluorophenyl)acetamide] | 4.1 nM | 1100 nM |
| CN1CC(CC(F)(F)F)c2[nH]c(-c3ccnc(NC(=O)Cc4ccc(F)cc4)c3)c(Nc3cscn3)c2C1=O (racemic) [Example 46, 2-(4-fluorophenyl)-N-{4-[(7RS)-5-methyl-4-oxo-3-(1,3-thiazol-4-ylamino)-7-(2,2,2-trifluoroethyl)-4,5,6,7-tetrahydro-1H-pyrrolo[3,2-c]pyridin-2-yl]pyridin-2-yl}acetamide] | 72 nM | > 20000 nM |
| CN1CC(CC2CC2)c2[nH]c(-c3ccnc(NC(=O)Cc4ccc(F)cc4)c3)c(Nc3cscn3)c2C1=O (racemic) [Example 49, N-{4-[(7RS)-7-(cyclopropylmethyl)-5-methyl-4-oxo-3-(1,3-thiazol-4-ylamino)-4,5,6,7-tetrahydro-1H-pyrrolo[3,2-c]pyridin-2-yl]pyridin-2-yl}-2-(4-fluorophenyl)acetamide] | 14 nM | > 20000 nM |
